The structures appear in SMILES notation. Bounds are passed on as bounds.

Data set [1] deals with T1, Aiolos (Homo sapiens, UniProt Q9UKT9).
T1 construct: from tissue; host or cells: tumor tissue of R/R B-cell NHL patients
The data set is described as follows: Aiolos degradation in tumor by targeted MS (Phase 1a). Format: in vivo. The note with it: patients, IV, DL1, targeted MS. The procedure:
(§1) In some embodiments, the present disclosure provides a method of administering Compound A to a patient in need thereof, comprising administering to said patient a therapeutically effective amount of Compound A or a pharmaceutically acceptable salt thereof (e.g., in a liquid formulation or a unit dose form as described herein), wherein greater than 60%, 70%, 80%, or 90% of Aiolos degradation in blood or tumor is achieved (e.g., by measuring, at 48 hours post-administration, Aiolos levels using mass spectrometry or lymphocytes and monocytes using flow cytometry).
(§2) Patients who provide informed consent and meet the eligibility criteria for the study will be enrolled and treated with Compound A administered intravenously (IV) on Day 1 of a 21-day schedule (Schedule 1). An alternative schedule of Compound A administered IV on Day 1 and Day 2 of a 21-day schedule (Schedule 2) may also be evaluated based on emerging pharmacokinetic, pharmacodynamic, and safety data observed in Schedule 1. If Schedule 2 is investigated, the first dose level will represent a split dose of the highest dose previously determined to be tolerable in Schedule 1 with the total dose administered in Schedule 2 being equivalent to the total dose administered in Schedule 1. Subsequent dose levels for Schedule 2 will follow the same dose escalation scheme as described for Schedule 1. […]

Data set [2] has as its target T2, IRAK4 (Homo sapiens, UniProt Q9NWZ3).
T2 construct: from tissue; host or cells: tumor tissue of R/R B-cell NHL patients
T2 sequence (Q9NWZ3 1-460): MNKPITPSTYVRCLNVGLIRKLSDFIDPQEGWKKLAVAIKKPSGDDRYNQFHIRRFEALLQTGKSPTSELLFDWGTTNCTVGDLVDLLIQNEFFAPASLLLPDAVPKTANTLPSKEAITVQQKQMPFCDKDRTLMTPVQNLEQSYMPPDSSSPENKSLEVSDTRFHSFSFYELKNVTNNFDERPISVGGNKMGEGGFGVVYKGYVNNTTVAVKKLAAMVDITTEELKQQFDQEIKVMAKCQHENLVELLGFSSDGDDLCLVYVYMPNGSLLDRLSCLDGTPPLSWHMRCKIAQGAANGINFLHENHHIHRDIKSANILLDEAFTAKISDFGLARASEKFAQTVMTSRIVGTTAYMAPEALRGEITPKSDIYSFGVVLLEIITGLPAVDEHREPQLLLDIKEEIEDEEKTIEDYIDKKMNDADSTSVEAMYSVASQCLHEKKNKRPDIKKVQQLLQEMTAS
Kind of data set: IRAK4 degradation in tumor by targeted MS (Phase 1a). Format: in vivo. The note with it: patients, IV, DL1, targeted MS. The procedure:
(§3) In some embodiments, the present disclosure provides a method of administering Compound A to a patient in need thereof, comprising administering to said patient a therapeutically effective amount of Compound A or a pharmaceutically acceptable salt thereof (e.g., in a liquid formulation or a unit dose form as described herein), wherein great than 30%, 40%, 50%, 60%, 70%, 80%, or 90% of IRAK4 degradation in blood or tumor is achieved (e.g., by measuring, at 48 hours post-administration, IRAK4 levels using mass spectrometry or lymphocytes and monocytes using flow cytometry).
as §2

Data set [3] has as its system IRAK4, Ikaros, and Aiolos. The data set is described as follows: Duration of target degradation in patients (Phase 1a). Particulars: once every three-week dosing. The format is in vivo, human. An excerpt:
(§4) Patients who provide informed consent and meet the eligibility criteria for the study will be enrolled and treated with Compound A administered intravenously (IV) on Day 1 of a 21-day schedule (Schedule 1). An alternative schedule of Compound A administered IV on Day 1 and Day 2 of a 21-day schedule (Schedule 2) may also be evaluated based on emerging pharmacokinetic, pharmacodynamic, and safety data observed in Schedule 1. If Schedule 2 is investigated, the first dose level will represent a split dose of the highest dose previously determined to be tolerable in Schedule 1 with the total dose administered in Schedule 2 being equivalent to the total dose administered in Schedule 1. Subsequent dose levels for Schedule 2 will follow the same dose escalation scheme as described for Schedule 1. If the sponsor and investigators determine that, based on the observed safety, PK, preliminary efficacy, and/or the PD profile, Schedule 2 may not be beneficial to patients, then the study will proceed immediately to Phase 1b after the Schedule 1 MTD/RP2D is determined and Schedule 2 may not be evaluated. • Schedule 1: Dose D1 on a 21-day schedule • Schedule 2: Dose D1, D2 on a 21-day schedule

The target in data set [4] is T3, Ikaros (Homo sapiens, UniProt Q13422).
T3 construct: from tissue; host or cells: tumor tissue of R/R B-cell NHL patients
T3 sequence (Q13422 whole entry): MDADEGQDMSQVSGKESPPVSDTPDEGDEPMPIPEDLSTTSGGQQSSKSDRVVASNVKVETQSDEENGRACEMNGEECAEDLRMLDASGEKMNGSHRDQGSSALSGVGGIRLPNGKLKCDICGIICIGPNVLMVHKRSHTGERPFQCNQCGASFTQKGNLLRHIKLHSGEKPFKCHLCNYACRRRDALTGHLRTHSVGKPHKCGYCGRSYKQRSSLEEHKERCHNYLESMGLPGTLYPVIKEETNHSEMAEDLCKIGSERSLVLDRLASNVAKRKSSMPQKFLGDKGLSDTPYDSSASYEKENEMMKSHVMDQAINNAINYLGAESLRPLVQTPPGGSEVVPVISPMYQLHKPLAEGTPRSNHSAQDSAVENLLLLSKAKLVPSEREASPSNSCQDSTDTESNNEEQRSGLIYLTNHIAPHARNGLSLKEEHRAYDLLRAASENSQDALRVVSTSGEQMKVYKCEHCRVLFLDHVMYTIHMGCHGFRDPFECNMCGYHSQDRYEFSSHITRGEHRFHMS
The data set is described as follows: Ikaros degradation in tumor by targeted MS (Phase 1a). Format: in vivo. Particulars: patients, IV, DL1, targeted MS. Here is the method:
(§5) In some embodiments, the present disclosure provides a method of administering Compound A to a patient in need thereof, comprising administering to said patient a therapeutically effective amount of Compound A or a pharmaceutically acceptable salt thereof (e.g., in a liquid formulation or a unit dose form as described herein), wherein greater than 40%, 50%, 60%, 70%, 80%, or 90% of Ikaros degradation in blood or tumor is achieved (e.g., by measuring, at 48 hours post-administration, Ikaros levels using mass spectrometry or lymphocytes and monocytes using flow cytometry).
as §2

The target of data set [5] is T2, IRAK4. The data set is described as follows: IRAK4 degradation in blood by PBMC FLOW (Phase 1a). Format: in vivo. Particulars: patients with R/R B-cell NHL, IV, DL1 and DL2, PBMC FLOW. Here is the method: as §3, §2
The nature of data set [6]: Plasma concentration and PK in patients (Phase 1a). The format is in vivo, human. Particulars: IV, DL1 and DL2, plasma.
Source text: as §4

Data set [7] concerns the target T1, Aiolos. Kind of data set: Aiolos degradation in blood by PBMC FLOW (Phase 1a). The format is in vivo. The note with it: patients with R/R B-cell NHL, IV, DL1 and DL2, PBMC FLOW. Here is the method: as §1, §2
Data set [8] has as its target T3, Ikaros. The data set is described as follows: Ikaros degradation in blood by PBMC FLOW (Phase 1a). The format is in vivo. The note with it: patients with R/R B-cell NHL, IV, DL1 and DL2, PBMC FLOW. Here is the method:
as §5, §2

T1 sequence (Q9UKT9 whole entry): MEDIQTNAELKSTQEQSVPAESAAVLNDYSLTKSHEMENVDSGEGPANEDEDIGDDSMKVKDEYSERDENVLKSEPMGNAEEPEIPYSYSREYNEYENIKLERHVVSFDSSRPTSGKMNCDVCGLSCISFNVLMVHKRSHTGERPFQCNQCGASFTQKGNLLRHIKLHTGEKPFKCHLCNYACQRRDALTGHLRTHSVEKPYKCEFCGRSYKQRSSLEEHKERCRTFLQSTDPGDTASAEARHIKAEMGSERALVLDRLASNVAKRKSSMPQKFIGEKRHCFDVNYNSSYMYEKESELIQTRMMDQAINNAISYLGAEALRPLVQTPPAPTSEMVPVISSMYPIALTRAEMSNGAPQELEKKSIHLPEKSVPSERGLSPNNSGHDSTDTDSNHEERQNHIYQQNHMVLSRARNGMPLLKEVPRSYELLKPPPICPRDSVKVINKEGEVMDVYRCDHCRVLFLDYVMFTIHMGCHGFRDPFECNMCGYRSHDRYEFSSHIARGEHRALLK

Turning to `CC(C)(O)c1cc2nc([C@H]3CC[C@H](CN4CC5(CC(CCNc6cccc7c6C(=O)N(C6CCC(=O)NC6=O)C7=O)C5)C4)CC3)sc2cc1NC(=O)c1cccc(C(F)(F)F)n1` (some centres unmarked) [Compound A], the “Aiolos KD in tumor” value on Aiolos [1] was 40-66%. Further, the “IRAK4 KD in tumor” value at IRAK4 [2] is 27%. Further, the “Duration of target degradation” value in data set [3] is given as “At least 72 h”. The “Ikaros KD in tumor” value on Ikaros [4] is 40-66%. In addition, on IRAK4 [5], the “IRAK4 degradation in PBMC” value is “Up to 40%”. Moreover, the “Exposure (plasma concentration and PK)” value in data set [6] was “dose-proportional increase in exposure”. The “KD of Aiolos in PBMC” value on Aiolos [7] is at most 95%. Moreover, the “KD of Ikaros in PBMC” value at Ikaros [8] is at most 95%.

These data come from patent US20230277519A1, “IRAK4 DEGRADERS AND USES THEREOF” (Kymera Therapeutics, Inc., priority 2022, published 2023).
